In patent US20250090462A1, “LIPID COMPOUND AND PREPARATION METHOD THEREFOR, AND USE THEREOF” (South China University of Technology, priority 2022, published 2025):

Columns and labels:
[1] = In vivo RNA imaging (IVIS) of repRNA-Luc delivery after intramuscular injection; set-up: species or system C57BL/6 mice; conditions: for repRNA-Luc expression by IVIS: 3rd day after intramuscular injection, 150 ng repRNA-Luc, DSPC LNP; for course of expression values with time (IVIS total flux): after intramuscular injection of repRNA-Luc LNP
Source text: Ionizable lipid compounds 3-4-C8, 3-5-C8, 10-4-C8, 10-5-C8, and 11-4-C8 were used to deliver self-amplifying RNA (Rep RNA-Luc) encoding firefly luciferase (Luc) in C57BL/6 mice. After intramuscular injection in mice, the in vivo imaging system (IVIS) was used to detect on the 3rd, 5th, and 7th day after injection.
1) The specific steps are the same with the lipid compound delivering RNA test in performance test 3, the difference in this performance test, the experimental group: ionizable lipid compounds 3-4-C8, 3-5-C8, 10-4-C8, 10-5-C8 or 11-4-C8 and distearoyl phosphatidylcholine (DSPC), cholesterol (Cholesterol), distearoyl phosphatidylacetamide-polyethylene glycol (DSPE-PEG) or blank group are dissolved in anhydrous and non-enzymatic ethanol according to a certain concentration, the use of the ratio is ionizable lipid compounds 3-4-C8, 8-4-C8, 10-4-C8 or 11-4-C8:Cholesterol:DSPC:DSPE-PEG=40:48:10:2. A proper amount of repRNA-Luc was dissolved in sodium acetate buffer (the volume of sodium acetate buffer was twice the total volume of the lipid mixture, pH=5.3), the repRNA-Luc dissolved in the buffer was added into the lipid mixture solution and quickly mixed to assemble into lipid nanoparticles, the mixed solution was incubated at room temperature for 15 min, and then dialyzed in ultrapure water for 0.5 h using a dialysis bag (14000 MW), finally, 10% glucose solution was added to the lipid nanoparticle solution to adjust the osmotic pressure for intramuscular injection (LNP containing 150 ng of repRNA-Luc in each dose). Among them, the N/P ratio of ionizable lipid to mRNA (N/P ratio) is 24:1, which is the optimal ratio, that is, the molar ratio between the protonated amino group on the ionizable lipid and the phosphate group on the DNA.
FIG. 18 is the detection map of the in vivo imaging system for lipid nanoparticles injected into mice. FIG. 19 is an injection time and total flux of the lipid compound.

[2] = Particle size, PDI and Zeta potential of lipid compound nanoparticles (DLS); assay type: physicochemical; conditions: LNP with pDNA-GFP-Luc, lipid compound:Cholesterol:DOPE:DSPE-PEG=40:48:10:2, N/P 24:1, pH=5.3
Description: Lipid compounds 3-2-C8, 3-3-C8, 3-4-C8, 3-5-C8, 10-2-C8, 10-3-C8, 10-4-C8 and 10-5-C8 were used as nanocarrier materials to encapsulate pDNA-GFP-Luc to test the particle size (Size), polymer dispersion index (PDI) and Zeta potential of the lipid nanoparticles.
Ionizable lipids 3-2-C8, 3-3-C8, 3-4-C8, 3-5-C8, 10-2-C8, 10-3-C8, 10-4-C8, 10-5-C8 and dioleoyl phosphatidyl ethanolamine (DOPE), cholesterol, distearoylphosphatidylacetamide-polyethylene glycol (DSPE-PEG) were dissolved in anhydrous ethanol at a certain concentration, the components were uniformly mixed according to a certain molar ratio of lipid compound:Cholesterol:DOPE:DSPE-PEG=40:48:10:2, at the same time, a proper amount of pDNA-GFP-Luc was dissolved in sodium acetate buffer (the volume of sodium acetate buffer was twice the total volume of lipid mixture, pH=5.3), and the pDNA-GFP-Luc dissolved in the buffer was taken into the lipid mixture solution, and quickly mixed to assemble into lipid nanoparticles, the mixed solution was incubated at room temperature for 15 min, and the particle size and potential were tested by dynamic light scattering instrument (DLS). The nitrogen-phosphorus ratio (N/P ratio) of ionizable lipid to pDNA (24:1) was the optimal ratio, that is, the molar ratio between the protonated amino group on the ionized lipid and the phosphate group on the DNA. 2) Analysis of experimental results:
FIG. 11 is the particle size test diagram of nanoparticles prepared by lipid compounds. Table 2 is the Zeta potential test results of nanoparticles prepared by lipid compounds.
The charge is 13.0±1.56-28.7±4.36 mV, which is consistent with the characteristics of lipid nanoparticles, the smaller particle sizes can exert the high permeability and long retention effect (EPR), leading to better accumulation in the tumor sites.

Zeta potential [2]	Compound	repRNA-Luc expression by IVIS [1]	course of expression values with time (IVIS total flux) [1]
20.2 ± 3.07 mV	CCCCCCCCC(CCCCCCCC)OC(=O)NCCCCOC(=O)CCN(CCC(=O)OCCCCNC(=O)OC(CCCCCCCC)CCCCCCCC)CCN1CCCC1 [3-4-C8]	successfully expressed	increased with time
23.5 ± 4.87 mV	CCCCCCCCC(CCCCCCCC)OC(=O)NCCCCOC(=O)CCN(CCC(=O)OCCCCNC(=O)OC(CCCCCCCC)CCCCCCCC)CCN(C)C [10-4-C8]	successfully expressed	increased with time
20.7 ± 2.77 mV	CCCCCCCCC(CCCCCCCC)OC(=O)NCCOC(=O)CCN(CCC(=O)OCCNC(=O)OC(CCCCCCCC)CCCCCCCC)CCN(C)C [10-2-C8]		
13.0 ± 1.56 mV	CCCCCCCCC(CCCCCCCC)OC(=O)NCCOC(=O)CCN(CCC(=O)OCCNC(=O)OC(CCCCCCCC)CCCCCCCC)CCN1CCCC1 [3-2-C8]		
